According to PubChem BioAssay (NCI):
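Results reflect a 48-hour exposure of cells in 96-well plates to compound at five concentrations. GI50 = concentration required for 50% inhibition of growth. TGI: concentration producing complete growth inhibition.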

How the values were obtained:
Assay in all cases: growth of human tumour cells (NCI), 48 h
786-0 renal = system: 786-0 renal
A498 renal = system: A498 renal
A549 NSCLC = system: A549 NSCLC
ACHN renal = system: ACHN renal
BT-549 breast = system: BT-549 breast
CCRF-CEM leukemia = system: CCRF-CEM leukemia
COLO 205 colon = system: COLO 205 colon
DU-145 prostate = system: DU-145 prostate
EKVX NSCLC = system: EKVX NSCLC
HCT-116 colon = system: HCT-116 colon
HCT-15 colon = system: HCT-15 colon
HL-60(TB) leukemia = system: HL-60(TB) leukemia
HOP-62 NSCLC = system: HOP-62 NSCLC
HOP-92 NSCLC = system: HOP-92 NSCLC
HS 578T breast = system: HS 578T breast
HT29 colon = system: HT29 colon
IGROV1 ovarian = system: IGROV1 ovarian
KM12 colon = system: KM12 colon
LOX IMVI melanoma = system: LOX IMVI melanoma
M14 melanoma = system: M14 melanoma
MALME-3M melanoma = system: MALME-3M melanoma
MCF7 breast = system: MCF7 breast
MDA-MB-231 breast = system: MDA-MB-231 breast
MOLT-4 leukemia = system: MOLT-4 leukemia
NCI-H226 lung = system: NCI-H226 lung
NCI-H23 lung = system: NCI-H23 lung
NCI-H460 lung = system: NCI-H460 lung
NCI-H522 lung = system: NCI-H522 lung
NCI/ADR-RES ovarian = system: NCI/ADR-RES ovarian
OVCAR-4 ovarian = system: OVCAR-4 ovarian
OVCAR-5 ovarian = system: OVCAR-5 ovarian
OVCAR-8 ovarian = system: OVCAR-8 ovarian
PC-3 prostate = system: PC-3 prostate
RPMI-8226 leukemia = system: RPMI-8226 leukemia
RXF 393 renal = system: RXF 393 renal
SF-268 CNS = system: SF-268 CNS
SF-539 CNS = system: SF-539 CNS
SK-MEL-2 melanoma = system: SK-MEL-2 melanoma
SK-MEL-28 melanoma = system: SK-MEL-28 melanoma
SK-MEL-5 melanoma = system: SK-MEL-5 melanoma
SK-OV-3 ovarian = system: SK-OV-3 ovarian
SN12C renal = system: SN12C renal
SNB-19 CNS = system: SNB-19 CNS
SW-620 colon = system: SW-620 colon
T-47D breast = system: T-47D breast
TK-10 renal = system: TK-10 renal
U251 CNS = system: U251 CNS
UACC-257 melanoma = system: UACC-257 melanoma
UACC-62 melanoma = system: UACC-62 melanoma
UO-31 renal = system: UO-31 renal

`O=C(CC(Cl)=C(Cl)Cl)c1cccc(Cl)c1Cl` was tested, and the GI50 (786-0 renal) was 44.7 µM, the TGI (786-0 renal) was > 100 µM and the GI50 (A498 renal) was > 100 µM. For the same molecule, the TGI (A498 renal) was > 100 µM, the GI50 (A549 NSCLC) was > 100 µM and the TGI (A549 NSCLC) was > 100 µM. For the same molecule, the GI50 (ACHN renal) was 47.7 µM, the TGI (ACHN renal) was > 100 µM and the GI50 (BT-549 breast) was 70.6 µM. For the same molecule, the TGI (BT-549 breast) was > 100 µM, the GI50 (CCRF-CEM leukemia) was 46.6 µM and the TGI (CCRF-CEM leukemia) was > 100 µM. For the same molecule, the GI50 (COLO 205 colon) was > 100 µM, the TGI (COLO 205 colon) was > 100 µM and the GI50 (DU-145 prostate) was > 100 µM. For the same molecule, the TGI (DU-145 prostate) was > 100 µM, the GI50 (EKVX NSCLC) was 57.7 µM and the TGI (EKVX NSCLC) was > 100 µM. The GI50 (HCT-116 colon) was 42.6 µM, the TGI (HCT-116 colon) was > 100 µM and the GI50 (HCT-15 colon) was 47.8 µM. For the same molecule, the TGI (HCT-15 colon) was > 100 µM, the GI50 (HL-60(TB) leukemia) was 64.8 µM and the TGI (HL-60(TB) leukemia) was > 100 µM. The GI50 (HOP-62 NSCLC) was 82.1 µM, the TGI (HOP-62 NSCLC) was > 100 µM and the GI50 (HOP-92 NSCLC) was 61 µM. The TGI (HOP-92 NSCLC) was > 100 µM, the GI50 (HS 578T breast) was > 100 µM and the TGI (HS 578T breast) was > 100 µM. The GI50 (HT29 colon) was 75.4 µM, the TGI (HT29 colon) was > 100 µM and the GI50 (IGROV1 ovarian) was 46.3 µM. For the same molecule, the TGI (IGROV1 ovarian) was > 100 µM, the GI50 (KM12 colon) was > 100 µM and the TGI (KM12 colon) was > 100 µM. The GI50 (LOX IMVI melanoma) was 38.1 µM, the TGI (LOX IMVI melanoma) was > 100 µM and the GI50 (M14 melanoma) was > 100 µM. The TGI (M14 melanoma) was > 100 µM, the GI50 (MALME-3M melanoma) was > 100 µM and the TGI (MALME-3M melanoma) was > 100 µM. The GI50 (MCF7 breast) was 66.8 µM, the TGI (MCF7 breast) was > 100 µM and the GI50 (MDA-MB-231 breast) was 65.6 µM. For the same molecule, the TGI (MDA-MB-231 breast) was > 100 µM, the GI50 (MOLT-4 leukemia) was 24 µM and the TGI (MOLT-4 leukemia) was > 100 µM. For the same molecule, the GI50 (NCI-H226 lung) was 75.1 µM, the TGI (NCI-H226 lung) was > 100 µM and the GI50 (NCI-H23 lung) was 63.2 µM. The TGI (NCI-H23 lung) was > 100 µM, the GI50 (NCI-H460 lung) was > 100 µM and the TGI (NCI-H460 lung) was > 100 µM. For the same molecule, the GI50 (NCI-H522 lung) was 36.9 µM, the TGI (NCI-H522 lung) was > 100 µM and the GI50 (NCI/ADR-RES ovarian) was 85.1 µM. The TGI (NCI/ADR-RES ovarian) was > 100 µM, the GI50 (OVCAR-4 ovarian) was > 100 µM and the TGI (OVCAR-4 ovarian) was > 100 µM. The GI50 (OVCAR-5 ovarian) was > 100 µM, the TGI (OVCAR-5 ovarian) was > 100 µM and the GI50 (OVCAR-8 ovarian) was > 100 µM. The TGI (OVCAR-8 ovarian) was > 100 µM, the GI50 (PC-3 prostate) was 78.3 µM and the TGI (PC-3 prostate) was > 100 µM. For the same molecule, the GI50 (RPMI-8226 leukemia) was 82.7 µM, the TGI (RPMI-8226 leukemia) was > 100 µM and the GI50 (RXF 393 renal) was > 100 µM. The TGI (RXF 393 renal) was > 100 µM, the GI50 (SF-268 CNS) was > 100 µM and the TGI (SF-268 CNS) was > 100 µM. The GI50 (SF-539 CNS) was 84.1 µM, the TGI (SF-539 CNS) was > 100 µM and the GI50 (SK-MEL-2 melanoma) was > 100 µM. The TGI (SK-MEL-2 melanoma) was > 100 µM, the GI50 (SK-MEL-28 melanoma) was > 100 µM and the TGI (SK-MEL-28 melanoma) was > 100 µM. The GI50 (SK-MEL-5 melanoma) was > 100 µM, the TGI (SK-MEL-5 melanoma) was > 100 µM and the GI50 (SK-OV-3 ovarian) was > 100 µM. The TGI (SK-OV-3 ovarian) was > 100 µM, the GI50 (SN12C renal) was 46.9 µM and the TGI (SN12C renal) was > 100 µM. For the same molecule, the GI50 (SNB-19 CNS) was > 100 µM, the TGI (SNB-19 CNS) was > 100 µM and the GI50 (SW-620 colon) was 88.7 µM. For the same molecule, the TGI (SW-620 colon) was > 100 µM, the GI50 (T-47D breast) was 42.5 µM and the TGI (T-47D breast) was > 100 µM. For the same molecule, the GI50 (TK-10 renal) was 28.2 µM, the TGI (TK-10 renal) was > 100 µM and the GI50 (U251 CNS) was 46.3 µM. The TGI (U251 CNS) was > 100 µM, the GI50 (UACC-257 melanoma) was > 100 µM and the TGI (UACC-257 melanoma) was > 100 µM. For the same molecule, the GI50 (UACC-62 melanoma) was 52.4 µM, the TGI (UACC-62 melanoma) was > 100 µM and the GI50 (UO-31 renal) was 59.4 µM. The TGI (UO-31 renal) was > 100 µM.
